From patent publication US12383628B2 (priority 2016, dated 2025)
Values joined by “and” are separate entries in the source; they are usually repeats but may differ in a detail not shown here. Identical values can stand only once. “Also recorded” adds a separate entry of the source. Like-named read-outs stand apart in the source and are kept apart here. Square brackets hold non-standard residues; d marks the D form. Ends that are not written are not given here. Peptide text beside a SMILES is read from it. Dmt = Cc1cc(O)cc(C)c1C[C@H](N)C(=O)O

Experiments:
[1] = In vivo monitoring of cargo release with fluorescence imaging; set-up: species or system athymic nude mice
Experimental: Fluorescent cargo—IRDye800CW N-hydroxysuccinimide (NHS) ester (Li-COR Biosciences) was solubilized at 4 mg/l in PBS. The solution was stirred for 2 h in order to hydrolyze the NHS ester, resulting in compound 2 as fluorescent cargo (MW=1068 g/mol). The dye solution was either used as such, or incorporated within the hydrogel as described below.
Animal study protocols were approved by the Ethical Committee for Animal Experiments of the Vrije Universiteit Brussel (also for section 2.5.). After subcutaneous injection of 150 μl of hydrogel containing 0.5 nmol of IRDye 800CW in athymic nude mice (Charles River, n=3 per group), fluorescence reflectance images of the posterior side of the mice were acquired over 24 h using the Fluobeam800 (Fluoptics) under 2.5% isoflurane anesthesia (Iso-Vet, Eurovet NV/SA). Fluorescence images were overlaid with white light images for anatomical localization. Regions of interest (ROI) were drawn around the site of injection and total fluorescence signal was measured within these ROIs using ImageJ software.

[2] = In vivo monitoring of cargo release with SPECT/CT; set-up: species or system C57Bl/6J mice
Experimental: The ^111In-labeled molecules were diluted up to 1 ml with PBS and either used as such, or incorporated within the hydrogel as described below.
Images were reconstructed using a filtered back-projection algorithm.
Images were quantified using the software AMIDE (sourceforge.net).

[3] = after 4 days of incubation
Experimental: (§1) Human plasma was obtained from the Belgian Red Cross (Vlaams-Brabant, Leuven). […] Frozen (−20° C.) human plasma samples were thawed and thermostated to 37+2° C. Dissolution of the lyophilized peptide and consecutive dilutions were performed in water. […] On every time point 100 μL spiked plasma was transferred to a 500 μL Eppendorf tube and a protein crash was performed using 300 μL methanol+0.1% TFA (4° C.). Suspensions were vortexed for 15 seconds and placed at 4° C. for 30 to 45 minutes. After centrifugation at 14000 rpm for 20 minutes, 100 μL supernatant was diluted with 100 μL water in the injection vial. Injection samples were vortexed for 5 seconds and placed in the autosampler. […] Concentrations were calculated by use of the calibration curve and transferred to a semi-log chart presenting the log concentrations as a function of time. The optimum curve was used to calculate the peptide-half life. Calculations were performed using Microsoft® Office Professional 2010 Excel.

[4] = Dynamic rheometry of hydrogels (storage modulus G′); assay type: physicochemical; conditions: 2% w/v in PBS, 37° C., value at 1 Hz
Experimental: Dynamic rheometry measurements were performed on an AR-G2 rheometer (TA Instruments) equipped with electrically heated plates and a 10 mm-diameter aluminium parallel plate-plate geometry. Viscoelastic properties were measured by oscillatory frequency sweeps at 37° C. in the range between 0.01 and 10 Hz, using a controlled strain of 0.05%. Hydrogel samples were made 12 h in advance. A ring-shaped reservoir filled with a saturated NH4Cl solution was used as a solvent trap.

[5] = TEM / cryo-TEM fibre morphology of hydrogels; assay type: physicochemical; conditions: for Fibre thickness: TEM, Example 2
Experimental: Formvar carbon-coated 400-mesh copper grids (Agar Scientific, Stansted, United Kingdom) were treated with plasma using an ELMO Glow discharge system to clean the grid surface and to render the carbon surface hydrophilic. Hydrogel samples were prepared 12 h in advance as described above. Small aliquots of sample (5 μL) were pipetted onto the carbon grids for adsorption. After 30 s, excess of sample was removed by using a Whatman 541 filter paper. The loaded grids were stained during 10 s with 1% uranyl formate after which the grids were air-dried. Samples were analysed using a JEOL JEM-1400 transmission electron microscope, operating at accelerating voltage of 120 kV. Images were recorded on a CMOS TemCam-F416 camera and accessory software of TVIPS.
200-mesh copper grids coated with perforated carbon film (Lacey carbon film: ProSci-Tech Old, Australia) were used and were glow discharged in nitrogen for 5 s immediately prior to use. Hydrogel samples were prepared 12 h in advance as described above. Small aliquots of sample (4 μL) were pipetted onto the carbon grids for adsorption. After 30 s, excess of sample was removed by using a Whatman 541 filter paper. The grid was then plunged into liquid ethane cooled by liquid nitrogen. Frozen grids were stored in liquid nitrogen until required. Samples were analysed using a Gatan 626 cryoholder and Tecnai 12 Transmission electron microscope, operating at accelerating voltage of 120 kV. Images were recorded using an FEI Eagle 4k×4k CCD camera.

[6] = Peptide gelation (tilted tube / inverted vial test, minimum gelation concentration); assay type: physicochemical; conditions: for Minimum gelation concentration (w/v % in PBS): '/' = no gel
Experimental: The peptide gelation occurred by dissolving the TFA salt of the hexapeptide (2 mg) in 100 μL of PBS solution (pH 7.4) or physiological saline solution (0.9% NaCl).
Both peptides 2 and 4 (Table 1) gave a transparent gel in the same conditions (PBS 10 mM at pH 7.4 with a minimum gelation concentration of 24 mM; 2% w/v). To evaluate the mechanical properties of these hydrogels in a more quantitative manner, rheological experiments were performed. The viscoelastic properties of the peptide hydrogels were measured by dynamic rheometry at 37° C. This technique allowed to measure the storage modulus G′ (corresponding to the material's stiffness or rigidity), loss modulus G″ (corresponding to the viscous properties of the material) and loss factor tan (o) (ratio of G″ over G′). According to the Winter-Chambon criterion, a material reaches gelation in rheological terms if the phase angle o gets frequency-independent (F. Chambon et al., 1987 and H. Winter et al., 1987).
The peptide gelation occurred by dissolving the TFA salt of the peptide in 100 μL of PBS solution or physiological saline solution (0.9% NaCl) (pH 7.4).
The peptide gelation occurs by dissolving the TFA salt of the hydrogelator (1 or 2 mg) in 100 μL of aqueous media, PBS solution (pH 7.4) or physiological saline solution (0.9% NaCl). After successive vortexing and sonication, the gel is left to rest overnight at room temperature.
The hydrogelation was realized under physiologically relevant conditions, namely via the addition of phosphate-buffered saline (PBS) or sterile physiological saline solution (0.9% NaCl). The needed amount of hydrogelator was weighed in an Eppendorf® and solubilized by the addition of the above solutions. After vortex and sonication steps, the resulting solution was left at room temperature until gelation occurred. The gelation was qualitatively verified by the inverted vial test (if no gravitational flow was visible the gelation was considered successful). It can be noticed that all peptide hydrogelators depicted formed gels in PBS and saline solution at a concentration of 1 to 2% w/v.

[7] = system: L929 (mouse fibroblast) cells; test: Live/Dead cell viability assay on hydrogels (Example 5); assay type: cell-based; conditions: 24 h on hydrogel
Experimental: L929 (mouse fibroblast) cells were obtained from ATCC® and maintained in Gibco®, MEM with GlutaMAX supplemented with 10% FBS (SAFC, Sigma), 1% Anti-Anti (100×, Gibco®) and 1% NEAA (100×, Gibco®). Cells were maintained on tissue culture treated polystyrene (TCPS) plates at 37° C. in a humified atmosphere containing 5% CO2 and 95% air. Cells were trypsinized, harvested and counted using a hemocytometer. The resulting cell suspension was diluted in Gibco® solution before addition to the hydrogels. For ease of handling and to produce homogeneous clear hydrogels, 100 μL of peptide hydrogels were prepared (in corresponding gelation conditions, see above) in Eppendorf tubes (0.5 ml) and transported using a 21G syringe to 96-well plates after simultaneously heating (60° C.) and mixing (900 rpm) using an Eppendorf ThermoMixer®. The hydrogels were left to set overnight in the wells at room temperature and were subsequently washed twice with 200 μL of Anti-Anti (100×, Gibco®) solution, 2 h each. After washing, media was removed and cells were seeded evenly over hydrogels. Cells were plated in duplicate on all hydrogels and control wells. Viability of cells on hydrogels was determined using the traditional Live/dead cell viability assay (Invitrogen) after culture durations of 24 h.
Plates were incubated in 5% CO2 at 37° C. for 1 day to allow cell attachment and spreading to occur. […]

[8] = pH of the hydrogel; assay type: physicochemical
[9] = in vitro; conditions: human, plasma, 37° C., in solution
Experimental: as §1

[10] = biological target: MOR (Homo sapiens, UniProt P35372); test: Binding tests (Ki) MOR
[11] = Stability and degradability of biogels in human plasma (Example 8); assay type: in vitro ADME; conditions: human plasma, 37° C.
Experimental: After centrifugation at 14 000 rpm for 15 minutes, 100 μL supernatant was diluted with 100 μL milliQ water in the injection vial. Injection samples were vortexed for 5 seconds and were analyzed by HPLC. […] Calculations were performed using Microsoft® Office Professional 2010 Excel.

[12] = biological target: DOR (Homo sapiens, UniProt P41143); test: Binding tests (Ki) DOR
[13] = biological target: KOR (Homo sapiens, UniProt P41145); test: Binding tests (Ki) KOR
[14] = system: L929 mouse fibroblasts; test: Cytotoxicity, Live/Dead viability staining on hydrogels (Example 9); assay type: cell-based
Experimental: Hydrogels were prepared at 1, 2 or 3 mg/100 μL as duplicate in a 96-well ULA plate (Cat #CORN3474; Corning-Costar, 60 μL each well). The gels were photographed and pre-equilibrated before seeding with cells. For equilibration, gels were incubated at room temperature in 40 μL of L929 culture medium with double-strength Anti-Anti (Cat #15240062, GIBCO) for 2 h prior to seeding with cells. The equilibration medium was removed before cell seeding and retained to examine if the gels dissolved (even partially) or disintegrated into the culture medium. Next, […] mouse fibroblasts (ATCC) were seeded onto hydrogels at a concentration of 200,000 cells/ml in a volume of 50 μl. The cells were photographed immediately after seeding, observed by microscopy 2 h post-seeding and then observed and photographed at 24 h post-seeding. The cell culture medium consisted of MEM+GlutaMAX I (Cat #41090-036; GIBCO); 10% foetal bovine serum (Cat #12003C; SAFC, Sigma), 2× Anti-Anti (Cat #[…]) and 1× Non-Essential Amino Acids (Cat #41090-036; GIBCO).
Bright field microscopy was performed through use of a IX71 inverted microscope with NIS-Elements F3.0 imaging software (Olympus). The TE2000 Eclipse fluorescent microscope with NIS-Elements AR3.2 software (Nikon) was used for fluorescence imaging microscopy. Automated cell counting was performed on the NC-200 NucleoCounter using proprietary lysis and stabilising reagents and cassettes (ChemoMetec).
The viability and distribution of cells was assessed using a LIVE/DEAD Viability/Cytotoxicity Kit *for Mammalian cells* (Live-Dead Kit), (Cat #13224; Molecular Probes). Briefly, a working solution of live/dead solution was made as per manufacturer's instructions by adding 1.25 μl of Calcein AM (solution A) to 2.5 ml of pre-warmed PBS. The solution was thoroughly mixed by vortex and 2.5 μl of Ethidium homodimer (solution B), was added before vortexing a second time to mix. Excess medium was removed and the gels rinsed with 20 μl of warm PBS before a 40 μl of Live/Dead kit working solution was added to each well. The plate was incubated in a 37° C. cell culture incubator for 20 min before viewing using a fluorescent microscope. Green fluorescence was emitted from the cytoplasm of viable cells (excitation/emission ˜495 nm/˜515 nm) while dead cell nuclei fluoresced red (excitation/emission ˜495/˜635 nm) allowing a distinction to be made between viable and dead cells.

[15] = in vitro; conditions: human, plasma
Experimental: Human plasma was obtained from the Belgian Red Cross (Vlaams-Brabant, Leuven). Prior to the stability test, selectivity, stability of the compound in the injection solvent, linearity, accuracy and precision of the method were investigated. Frozen (−20° C.) human plasma samples were thawed and thermostated to 37±2° C. Dissolution of the lyophilized peptide and consecutive dilutions were performed in water. The resulting aqueous solutions of each peptide individually was spiked in human plasma (10:90 v/v) with final plasma concentrations of 9 μM.
On every time point 100 μL spiked plasma was transferred to a 500 μL Eppendorf tube and a protein crash was performed using the corresponding precipitation solvent (4° C.). Suspensions were vortexed for 15 s and placed at 4° C. for 30 to 45 min. After centrifugation at 18 625 g for 20 min, 100 μL supernatant was diluted with 100 μL water in the injection vial.
Injection samples were vortexed for 5 sand placed in the autosampler. […] Concentrations were calculated by use of the calibration curve and transferred to a semi-log chart presenting the log concentrations as a function of time. The optimum curve was used to calculate the peptide half-life. Calculations were performed using Microsoft® Office Professional 2010 Excel.

[16] = for Hydrogel volume remaining: 2 w/v% in PBS, 150 μL s.c.
Experimental: ^111/n-labeling of DOTA-peptide—^111InCb (5 μl,±4 MBq) (Mallinckrodt) was added to 200 μl 1 mg/ml DOTA-peptide 6, dissolved in 0.2 M ammonium acetate buffer (NH4OAc) pH 5, and incubated for 30 min at 50° C. Radiochemical purity (>95%) was verified by ITIC using 0.1 M citrate buffer pH 5 as mobile phase. 200 μl of ^111In-peptide 6 was diluted up to 1 ml with phosphate buffered saline (PBS, 10 mM) and incorporated within the hydrogel as described below.
After sequential vortexing and sonication, hydrogels (2 w/v¾) were formed and let to rest overnight.
C57Bl/6J mice were purchased by Charles River (n=3 per group) and all experimental procedures were performed under 2.5% isoflurane anesthesia (Iso-vet). 150 μL (0.518±0.037 MBq) of the ^111In-labeled hydrogel (stability experiment) or 150 μL (1.702±0.777 MBq) of hydrogels loaded with ^111In-labeled cargos (cargo release experiment) were injected subcutaneously on the hind limb. For comparison, 150 μL of ^111In-labeled cargos not loaded into a hydrogel were also subcutaneously injected. Immediately after injection, at 1 h30, 3 h, 6 h, 12 h, 24 h, 48 h and 72 h, animals were subjected to a SPECT/CT scan. SPECT images were acquired on an e.cam^180 system (Siemens) equipped with two triple-pinhole collimators designed for ^111In (1.5 mm pinhole opening, 250 mm focal length, 47 mm radius of rotation). Images were acquired over 360° in 64 projections of 30 s into a 128×128 matrix and reconstructed using an iterative algorithm correcting for radioactive decay and allowing automatic fusion with CT images (based on six 57Co fiducial markers). […]
Maximum intensity projections (MIPs) were generated in Osirix Medical Software. Images were quantified using the software AMIDE (sourceforge.net). For the stability experiments, the size of the gel was determined by automatic delineation, for the cargo release experiments, the total radioactivity within a ROI drawn on the hind limb was calculated. Results were expressed as percentage of injected dose remaining in function of time. […]

[17] = PBS 10 mM, pH 7.4 (text, Examples 1-2)

Chain of DOR (P41143 whole entry): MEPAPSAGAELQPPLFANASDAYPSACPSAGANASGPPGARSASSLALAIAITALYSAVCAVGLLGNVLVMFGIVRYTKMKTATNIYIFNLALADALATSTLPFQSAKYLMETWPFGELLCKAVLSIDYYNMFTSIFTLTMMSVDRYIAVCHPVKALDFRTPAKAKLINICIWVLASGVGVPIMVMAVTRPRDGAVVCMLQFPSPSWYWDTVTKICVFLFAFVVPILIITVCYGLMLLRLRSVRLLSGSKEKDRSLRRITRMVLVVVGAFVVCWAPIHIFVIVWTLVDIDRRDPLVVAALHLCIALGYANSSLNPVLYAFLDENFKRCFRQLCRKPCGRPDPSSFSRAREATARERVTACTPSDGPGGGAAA
Chain of MOR (P35372 whole entry): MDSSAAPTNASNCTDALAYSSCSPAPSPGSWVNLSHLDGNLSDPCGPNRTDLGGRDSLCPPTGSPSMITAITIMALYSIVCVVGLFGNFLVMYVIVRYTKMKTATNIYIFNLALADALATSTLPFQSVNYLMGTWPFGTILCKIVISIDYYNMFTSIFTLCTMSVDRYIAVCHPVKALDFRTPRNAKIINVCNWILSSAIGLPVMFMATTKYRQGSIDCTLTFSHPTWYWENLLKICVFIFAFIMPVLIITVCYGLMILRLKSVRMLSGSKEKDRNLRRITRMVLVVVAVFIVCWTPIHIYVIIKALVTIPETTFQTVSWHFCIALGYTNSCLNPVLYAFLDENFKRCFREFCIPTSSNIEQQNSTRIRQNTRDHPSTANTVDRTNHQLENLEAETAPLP
Chain of KOR (P41145 whole entry): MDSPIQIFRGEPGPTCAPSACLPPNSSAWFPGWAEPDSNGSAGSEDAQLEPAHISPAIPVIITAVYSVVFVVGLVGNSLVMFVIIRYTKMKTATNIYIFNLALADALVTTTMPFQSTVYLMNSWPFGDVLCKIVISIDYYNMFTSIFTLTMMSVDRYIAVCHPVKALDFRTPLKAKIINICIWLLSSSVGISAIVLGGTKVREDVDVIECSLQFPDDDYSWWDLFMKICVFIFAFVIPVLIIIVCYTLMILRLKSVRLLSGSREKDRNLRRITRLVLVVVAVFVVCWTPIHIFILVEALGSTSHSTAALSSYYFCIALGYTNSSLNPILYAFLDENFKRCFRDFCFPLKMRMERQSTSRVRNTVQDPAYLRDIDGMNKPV

With IRDye 800CW carboxylate the “Time the fluorescent signal remains visible” value ([1]; dye co-formulated within hydrogel of peptide 2 (2 w/v%), s.c.) was “more than 24 h” and the “Fluorescent signal at the injection site” value ([1]; dye injected s.c. as solution) was “reduces drastically within approximately two hours”.

With “DOTA-4-amino-2-cyclohexylmethyl-indolo[3,4-c]azepin-2-on [small molecule 3]” the “Clearance from the injection site” value ([2]; 111In-labeled cargo s.c. in solution, 1 mg/ml) was “totally cleared within three hours” and the Release profile ([2]; co-formulated within hydrogel of peptide 2, s.c.) was “released in a rather fast manner”.

With `NCCCC[C@@H](NC(=O)[C@@H](Cc1ccccc1)NC(=O)[C@@H](CCC(N)=O)NC(=O)[C@@H](Cc1ccccc1)NC(=O)[C@@H](CCC(=O)O)NC(=O)[C@H](N)Cc1ccccc1)C(N)=O` [peptide 4, H-DPhe-DGlu-DPhe*-DGln-DPhe-DLys-NH2] (H-[dF][dE][dF][dQ][dF][dK]-NH2) the “Stability after incubation with human plasma” value [3] was “remained intact”, the “Storage modulus G′” value [4] was “ca. 1000 Pa” and the Fibre thickness [5] was “ca. 10 nm”. The Minimum gelation concentration ([6]; PBS 10 mM, pH 7.4) was 24 mM, the Minimum gelation concentration [6, 17] was 2 % w/v and the “Minimum gelation concentration (w/v % in PBS)” value [6] was 3 w/v %. The “Cytotoxicity (Live/Dead cell viability, qualitative)” value [7] was “evenly distributed number of red (dead cells) and green (live cells) fluorescent cells”.

With “FEFQFK [peptide 1, H-Phe-Glu-Phe*-Gln-Phe-Lys-OH]” the “pH of the gel” value ([8]; listed as MBG-1) was < 4 and 3.49, the half-life at 72 μM [9] was about 2 min and the Minimum gelation concentration ([6]; in mQ:PBS 50:50) was 1 (in mQ:PBS w/v %.

For `Cc1cc(O)cc(C)c1C[C@H](N)C(=O)N[C@H](CCCCN)C(=O)N[C@@H](Cc1ccccc1)C(=O)N[C@@H](Cc1ccccc1)C(=O)N[C@@H](CCC(=O)O)C(=O)N[C@@H](Cc1ccccc1)C(=O)N[C@@H](CCC(N)=O)C(=O)N[C@@H](Cc1ccccc1)C(=O)N[C@@H](CCCCN)C(N)=O` [CM-53, Dmt-DLys-Phe-Phe-Glu-Phe*-Gln-Phe-Lys-NH2] (H-[Dmt][dK]FFEFQFK-NH2; N-terminus assumed), the Ki [10] was 7.4 nM, the “Time at which degradation of the heptapeptide into the N-terminal pentapeptide started” value [11] was 7.5 min and the “Time at which degradation of the pentapeptide into tripeptide was observed” value [11] was 60 min. The “Time of appearance of the heptapeptide (loss of Phe-Lys-NH2)” value [11] was 2.5 min, the half-life at 14 μM ([11]; human, in solution, 14 μM) was about 18 min and the Ki [12] was 24 nM. For the same molecule, the Ki [13] was 337 nM.

With “FEFQFK-NH2 [peptide 2, H-Phe-Glu-Phe*-Gln-Phe-Lys-NH2]” the “pH of the gel” value [8] was 4.02, the half-life at 72 μM [9] was about 15 min and the “Storage modulus G′” value [4] was “ca. 8000 Pa”. For the same molecule, the Cytotoxicity in vitro [14] was “showed no cytotoxicity in vitro”, the half-life at 9 μM [15] was about 15 min and the Fibre thickness [5] was “ca. 10 nm”. The Fibre diameter ([5]; cryoTEM and negative staining, Example 9) was about 5 nm, the Re-gelation after injection ([6]; 25G needle used for s.c. injections) was “immediate re-gelation after injection through a 25G needle” and the Minimum gelation concentration ([6]; PBS 10 mM, pH 7.4) was 24 mM. For the same molecule, the Minimum gelation concentration [6, 17] was 2 % w/v, the “Minimum gelation concentration (w/v % in PBS)” value [6] was 2 w/v % and the Hydrogel volume remaining ([16]; 12 h) was 24%. The Hydrogel volume remaining ([16]; 72 h post-injection) was 9%, the “Time within which most degradation occurred” value ([16]; after subcutaneous injection of the hydrogel) was at most 12 h and the “Cytotoxicity (Live/Dead cell viability, qualitative)” value [7] was “the majority of cells were green fluorescent and thus, were viable; also recorded: noncytotoxic”.
